Data from US20240025903A1, “Bicyclic Compounds and Uses Thereof for the Treatment of Diseases” (Athira Pharma, Inc., priority 2020, published 2024).
Where two headings read alike, the source gives them in different places.

Legend:
[1] = In vitro stability in simulated gastric and intestinal fluids; format: in vitro ADME; conditions: 37° C.; for SGF + Enz (compound remaining after 4 hours): SGF with 3.2 mg/ml pepsin; for SGF + Enz (compound remaining after 4 hours) / SIF (compound remaining after 4 hours): 5 μM; for SGF (compound remaining after 4 hours): simulated gastric fluid pH 1.2, 5 μM; for SIF (compound remaining after 4 hours): simulated intestinal fluid pH 6.8 with 10 mg/ml pancreatin
Procedure: (§1) Bioavailability can be estimated by compound stability when exposed to conditions in the body. As an initial assessment of stability properties in a variety of conditions present in animals, exemplary compounds were tested for stability in a battery of simulated body compartments. Compounds were tested for stability in the following solutions: simulated gastric fluid (SGF: 34.2 mM NaCl, pH 1.2), simulated gastric fluid with the digestive enzyme pepsin (SGF+Enzyme: SGF with 3.2 mg/ml pepsin), simulated intestinal fluid with the mixture of enzymes in porcine pancreatin (SIF+Enzyme: 28.7 mM NaH2PO4, 105.7 mM NaCl, pH 6.8, 10 mg/ml pancreatin), rat plasma, and human plasma.
(§2) Test compounds were incubated at a final concentration of 5 μM in the above solutions at 37° C. with samples removed at the following time points: 0, 1, 2, and 4 hours. Reactions were stopped and prepared for quantification by addition of excess quench solution containing an internal standard (acetonitrile, 200 ng/mL bucetin). Test compound and internal standard in each sample was quantified by LC-MS/MS, and after internal normalization to bucetin, test compound concentration was expressed as a percentage of concentration at the 0-hour time point. Stability in the relevant test solution was then determined by the percent remaining at the 4-hour time point.

In vivo pharmacokinetics = test: In vivo pharmacokinetics; design: species or system Sprague-Dawley rats; conditions: both sexes, Sprague-Dawley, rat; for Tmax: plasma; for AUC: dose-corrected plasma AUC; for Cmax: dose-corrected plasma Cmax
Procedure: Administration of exemplary compounds by selected routes followed by blood collection and compound quantification in plasma was used to determine the pharmacokinetic (PK) profile of the compounds. Compounds were administered to mixed-sex Sprague-Dawley rats of at least 250 grams by dissolving the test compound in DMSO and then diluting the compound into an appropriate vehicle, either saline or saline and poly-ethylene glycol. Dosing was accomplished by either tail vein puncture (IV) or oral gavage (PO), and animals were administered compound according to their weight at 1 mL/kg. At selected intervals following administration (10, 20, 40, 60, 120, and 360 minutes), blood was collected by tail vein blood draw. Whole blood was then processed by centrifugation to produce plasma. Compound content in plasma samples was quantified by LC-MS/MS and compared to an internal standard and standard curves to determine concentration accurately. Plasma concentrations were then averaged for each time point and plotted as a function of time. Area under the curve was calculated by integration of the curve, Cmax was the highest concentration achieved in plasma, and Tmax was determined by the timing of Cmax.

[2] = Parallel artificial membrane permeability assay (PAMPA); format: in vitro ADME; conditions: PBS, room temperature
Procedure: Bioavailable drugs must permeate the cellular membranes of the lining of the digestive tract. To estimate the penetrability of exemplary compounds, the in vitro parallel artificial membrane permeability assay (PAMPA) was utilized.
Test compounds must have a standard curve in the final read plate to determine partitioned concentration of each drug. A 6-point standard curve was prepared for each compound from 0 to 200 μM in phosphate-buffered saline (PBS).
Test compound solution (300 μL in PBS) was added to the donor (bottom) well of the PAMPA plate in 5 replicates and PBS vehicle (200 μL) was added to the acceptor (top) wells of appropriate wells to match the loading of the donor plate. The bottom and top of the PAMPA plates were then sandwiched together. The PAMPA plates were then incubated at room temperature for 5 hours. After incubation, 150 μL of donor solution was added to a UV compatible plate containing the corresponding standard curve. 150 μL of acceptor well solution was added adjacent to the corresponding standard curve and donor well samples for that compound. The plate was then read using a UV plate reader.
Permeability and membrane retention were then calculated based on the following formulas:
Permeability (cm/s): (Pe)(cm/s)={−ln [1−CA(t)/Ceq]}/[A*(1/VD+1/VA)*t] (equation 1) • where: • A=filter area (0.3 cm^2); • VD=donor well volume (0.3 mL); • VA=acceptor well volume (0.2 mL); • t=incubation time (seconds); • CA(t)=compound concentration in acceptor well at time t; • CD(t)=compound concentration in donor well at time t; and • Ceq=[CD(t)*VD+CA(t)*VA]/(VD+VA).
Membrane Retention (R)=1−[CD(t)*VD+CA(t)*VA]/(C0*VD) (equation 2) • where: • CD(t), VD, CA(t), and VA are as defined for equation 1, and • C0=initial concentration in donor well (200 uM).

[3] = In vitro stability in human plasma; format: in vitro ADME; conditions: 5 μM, 37° C.
Procedure: as §1, §2

[4] = Oral availability calculation; format: in vivo, Sprague-Dawley rats; conditions: both sexes, Sprague-Dawley, plasma; rat, dose corrected AUC PO / dose corrected AUC IV x 100
Source text: Oral bioavailability is critical to developing small molecule therapeutics for oral administration. Calculations of oral bioavailability (% F) are accomplished by comparing in vivo pharmacokinetic data (Example B7) using IV dosing as the maximum possible exposure and determining the exposure rate after PO administration. In these studies, dose corrected AUC from PO administration was divided by dose corrected AUC from IV administration and multiplied by 100 to yield the % F. Results are shown in Table 9.

[5] = In vitro stability in rat plasma; format: in vitro ADME; conditions: 5 μM, 37° C.
Procedure: as §1, §2

[6] = In vivo tissue distribution; design: species or system Sprague-dawley rats; conditions: rat
Procedure: The rate of distribution to target tissues is an important feature of therapeutic molecules. Tissue distribution of exemplary compounds was performed in mixed-sex Sprague-dawley rats. Test compounds were delivered via tail vein injection (IV) and tissues were collected at Tmax (10 minutes post administration). Animals were deeply anesthetized with isoflurane and whole blood was collected from the right atrium and processed by centrifugation to produce plasma. Animals were then fully perfused with PBS administered to the left ventricle to prevent blood contamination of tissues.
Tissues were collected and homogenized, and compound content in the target tissue was quantified by LC-MS/MS. Tissue distribution rates were determined by dividing the tissue concentration of compound by the plasma concentration and multiplying by 100.

[7] = IV (tail vein), read-out: TMAX IV
[8] = PO (oral gavage), read-out: TMAX PO
[9] = IV (tail vein), read-out: AUC IV
[10] = IV (tail vein), read-out: CMAX IV
[11] = PO (oral gavage), read-out: AUC PO
[12] = PO (oral gavage), read-out: CMAX PO

| Compound | SGF + Enz (compound remaining after 4 hours) [1] | SGF (compound remaining after 4 hours) [1] | SIF (compound remaining after 4 hours) [1] | Tmax (In vivo pharmacokinetics; [7]) | Tmax (In vivo pharmacokinetics; [8]) | AUC (In vivo pharmacokinetics; [9]) | Cmax (In vivo pharmacokinetics; [10]) | AUC (In vivo pharmacokinetics; [11]) | Cmax (In vivo pharmacokinetics; [12]) | Papp at 5 h, 200 µM [2] | Human Plasma (compound remaining after 4 hours) [3] | bioavailability [4] | Rat Plasma (compound remaining after 4 hours) [5] | Tissue Distribution (% Plasma exposure at 10 min post IV dose) Brain [6] | Tissue Distribution (% Plasma exposure at 10 min post IV dose) Cerebellum [6] | Tissue Distribution (% Plasma exposure at 10 min post IV dose) Cortex [6] | Tissue Distribution (% Plasma exposure at 10 min post IV dose) Hippocampus [6] | Tissue Distribution (% Plasma exposure at 10 min post IV dose) Muscle ([6]; muscle) | Tissue Distribution (% Plasma exposure at 10 min post IV dose) Sciatic Nerve ([6]; sciatic nerve) | Permeability ([2]; 5 hours) |
| --- | --- | --- | --- | --- | --- | --- | --- | --- | --- | --- | --- | --- | --- | --- | --- | --- | --- | --- | --- | --- |
| CCC(C)CN1CC2N(C(=O)c3ccc(C(F)(F)F)cc3)CCC(=O)N2[C@@H](C)C1=O (stereo partly shown) [Compound 1a] | ++++ (++++ indicates 100% compound remaining after 4 hours) | ++++ (++++ indicates 100% compound remaining after 4 hours) | ++++ (++++ indicates 100% compound remaining after 4 hours) | < 30 min | 30 to 60 min | 100 to 999 ng·h/mL | 1000 to 3000 ng/mL | 100 to 999 ng·h/mL | 1 to 100 ng/mL | > 2 ×10⁻⁶ cm/s | ++ (++ indicates 40-79% compound remaining after 4 hours) | 25 to 50% | ++ (++ indicates 40-79% compound remaining after 4 hours) | ++ (++ indicates distribution between 5 and 39%) | ++ (++ indicates distribution between 5 and 39%) | ++ (++ indicates distribution between 5 and 39%) | ++ (++ indicates distribution between 5 and 39%) | – | – | – |
| CCC(C)CN1CC2N(Cc3ccc(O)nc3)CCC(=O)N2[C@@H](C)C1=O (stereo partly shown) [Compound 7a] | +++ (+++ indicates 80-99% compound remaining after 4 hours) | ++++ (++++ indicates 100% compound remaining after 4 hours) | ++ (++ indicates 40-79% compound remaining after 4 hours) | < 30 min | 30 to 60 min | > 3000 ng·h/mL | > 3000 ng/mL | 1 to 100 ng·h/mL | 1 to 100 ng/mL | > 10 ×10⁻⁶ cm/s | – | < 1% | – | + (+ indicates distribution between 0.05 and 5%) | + (+ indicates distribution between 0.05 and 5%) | + (+ indicates distribution between 0.05 and 5%) | + (+ indicates distribution between 0.05 and 5%) | ++ (++ indicates distribution between 5 and 39%) | ++++ (++++ indicates distribution above 70%) | – |
| CCC(C)CN1CC2N(C(=O)c3ccc(O)cc3)CCC(=O)N2[C@@H](C)C1=O (stereo partly shown) [Compound 8a] | +++ (+++ indicates 80-99% compound remaining after 4 hours) | ++++ (++++ indicates 100% compound remaining after 4 hours) | +++ (+++ indicates 80-99% compound remaining after 4 hours) | – | – | – | – | – | – | – | ++ (++ indicates 40-79% compound remaining after 4 hours) | – | ++++ (++++ indicates 100% compound remaining after 4 hours) | – | – | – | – | – | – | + (+ indicates permeability above 1 × 10^−5 cm/s) |
| CCCCN1CC2N(C(=O)c3ccc(OC(F)F)cc3)CCC(=O)N2C(C)C1=O (stereo not shown) [Compound 17] | +++ (+++ indicates 80-99% compound remaining after 4 hours) | +++ (+++ indicates 80-99% compound remaining after 4 hours) | +++ (+++ indicates 80-99% compound remaining after 4 hours) | – | – | – | – | – | – | > 2 ×10⁻⁶ cm/s | +++ (+++ indicates 80-99% compound remaining after 4 hours) | – | ++ (++ indicates 40-79% compound remaining after 4 hours) | – | – | – | – | – | – | – |
| CC1C(=O)N(CCC2CCCC2)CC2N(C(=O)c3ccc(C(F)(F)F)cc3)CCC(=O)N12 (stereo not shown) [Compound 19] | ++ (++ indicates 40-79% compound remaining after 4 hours) | +++ (+++ indicates 80-99% compound remaining after 4 hours) | + (+ indicates 20-39% compound remaining after 4 hours) | – | – | – | – | – | – | < 2 ×10⁻⁶ cm/s | +++ (+++ indicates 80-99% compound remaining after 4 hours) | – | +++ (+++ indicates 80-99% compound remaining after 4 hours) | – | – | – | – | – | – | – |
